Results on three molecules are retold here after patent US20090240070A1, “WHITENING DERMATOLOGICAL PREPARATIONS” (SHOWA DENKO K.K., priority 2006, published 2009).

The test system of series [1] is culture skin model (MEL-300) containing melanin cells. As to conditions: for Amount of melanin synthesized (% relative to the control): 0.5% by mass test article solution, 0.1 ml, 11 days of incubation, control = 100%; for inhibition of melanin synthesis compared with tranexamic acid (in words): conclusion from Table 4.
Description: The above test articles, each 0.5% by mass, were dissolved separately in sterilized water containing 10% bovine serum albumin and 1% DMSO to give test article solutions.
The skin model was cultured for 11 days using the supplied culture medium LLMM. Each article was tested two times. The culture medium was changed every other day during the incubation.
After 11 days of incubation, the skin model was washed and was measured for the cell survival rate by colorimetry (570 nm) with the Alamar Blue reagent (manufactured by Molecular Probe). Thereafter, the melanin synthesized in the skin model was determined in the following manner.
The skin model was soaked overnight in a liquid which consisted of 0.2 ml of a 10 mM tris buffer solution (pH 6.8) containing 1% SDS and 0.05 mM EDTA, and 0.02 ml of 5 mg/ml Proteinase K. On the next day, 0.02 ml of 5 mg/ml Proteinase K was added, followed by heating at 45° C. for 4 hours. Consequently, the skin model was dissolved. The lysate was made alkaline with 0.025 ml of a 500 mM sodium carbonate solution, and was combined with 5 μl of 30% hydrogen peroxide, followed by heating at 80° C. for 30 minutes to perform reaction. To prepare a standard sample solution, 0.24 ml of a melanin solution of known concentration was combined with 0.025 ml of a 500 mM sodium carbonate solution and 5 μl of 30% hydrogen peroxide, followed by heating at 80° C. for 30 minutes to perform reaction.
The standard sample solution and the lysate obtained were each cooled and extracted with 0.1 ml of chloroform/methanol (2/1). The aqueous phase was measured for the absorbance at 405 nm, and the melanin synthesized was determined using a calibration curve obtained with the standard sample.
The conditions of series [2]: 0.5% by mass solution, 0.1 ml on minipig skin, 24 hours, 37° C.; HPLC.
Description: The above test articles, each 0.5% by mass, were dissolved separately in Dulbecco's PBS (−) containing 10% bovine serum albumin to give test article solutions.
2-cm square skin pieces of minipig (Charles River Laboratories Inc. (United States of America)) were placed in the Netwell (manufactured by Corning Incorporated), and assay rings (Teflon® rings with a center opening) on which a silicon sealant had been applied were pressed and fixed to the epidermis of the skin. Subsequently, 2 ml of a skin culture medium (TOYOBO CO., LTD.) was added to a multiwell plate, and the Netwell was set such that skin lower portions would be soaked. Each of the test article solutions, 0.1 ml, was slowly poured into the opening of assay ring. When no leakage was confirmed, the Netwell was sealed with multiplate seals and were allowed to stand in an incubator at 37° C. and 5% carbon dioxide. […]
The test articles in the tissue extracts were determined by HPLC.
The protein in the tissue extracts was determined by the Lowry method.
400 μl of the reagent 4 was added to a sample tube containing 20 μl of the tissue extract or the standard sample solution, followed by mixing. […] The absorbance at 750 nm was measured with a spectrophotometer, and the protein concentration in the tissue extract was determined using a calibration curve obtained with the standard sample.

As for `Cc1c(C)c2c(c(C)c1OC(=O)[C@H]1CC[C@H](CN)CC1)CCC(C)(CCCC(C)CCCC(C)CCCC(C)C)O2.Cl` (mixture of isomers) [b, dl-α-Tocopherol tranexamate hydrochloride], in series [1], the “Amount of melanin synthesized (% relative to the control)” value (from here on “Amount … (% relative to the control)”) came to 60% and the “inhibition of melanin synthesis compared with tranexamic acid (in words)” value is listed as “inhibit the melanin synthesis more effectively than tranexamic acid”.

For `Cc1c(OC(=O)[C@H]2CC[C@H](CN)CC2)cc2c(c1C)OC(C)(CCCC(C)CCCC(C)CCCC(C)C)CC2.Cl` (mixture of isomers) [c, dl-γ-Tocopherol tranexamate hydrochloride], in series [1], the “Amount … (% relative to the control)” value is reported as 44% and the “inhibition of melanin synthesis compared with tranexamic acid (in words)” value is reported as “inhibit the melanin synthesis more effectively than tranexamic acid”.

Consider `NC[C@H]1CC[C@H](C(=O)O)CC1` [a, Tranexamic acid, reference compound], for which, in series [2], the “Determined value, amount of test article in skin tissue extract” value turned out to be 0.034 μmol/mg skin protein. The “Amount … (% relative to the control)” value in series [1] is listed as 99%.
